According to patent US6756209B1, “7-Alkoxycoumarins as CYP2C9 substrates and activity assay” (SmithKline Beecham p.l.c., priority 1998, dated 2004):

- melting point: 198.5 to 200 °C
SMILES: COc1ccc2c(C(F)(F)F)c(CC(=O)O)c(=O)oc2c1
